# Results taken from patent publication US11952582B2, “Herbicide-resistance gene and application thereof in plant breeding” (priority 2017, dated 2024).
# “Also recorded” adds a separate entry of the source.
# Experiments:
# [1] = system: Arabidopsis WT, OE At, OE Pa, OE M3 seedlings; assay: Herbicide resistance after Arabidopsis germination (seedlings transferred to herbicide medium); assay type: in vivo, Arabidopsis thaliana
# Procedure: In order to further confirm the correctness of the results obtained in the germination test, an analysis experiment on herbicide resistance after Arabidopsis germination was conducted. Arabidopsis seedlings germinated by OE At, OE Pa, OE M3 and WT for 7 days were transferred to ½ MS medium containing different concentrations (0, 100, 250, 500, and 1000 nM) of mesotrione and grown for 1 week. 5 seedlings were treated per genotype with 3 biological replicates. After 1 week, the effect of the herbicide treatment (i.e., albino) was photographed.
# [2] = system: Arabidopsis WT, OE At, OE Pa, OE M3 plants; assay: Total chlorophyll and carotenoid content of Arabidopsis rosette leaves; assay type: in vivo, Arabidopsis thaliana
# Procedure: The leaves (rosette leaves) of 2 week-old plants grown in ^1/2 MS medium containing different concentrations (0, 100, 250, 500 and 1000 nM) of mesotrione were collected, including leaves of OE At, OE Pa, OE M3 and WT. The total chlorophyll and carotenoid were extracted and the content thereof was detected by referring to the method of Lichtenthaler HK (1987). All experiments were repeated biologically 3 times, and the average value was taken.
# [3] = system: WT and T0 OE SDM rice seedlings; assay: Rice resistance to herbicide at pot level (spray); assay type: in vivo; conditions: 200 μM spray, 21 d (3 weeks)
# Procedure: Transgenic T0 generation OE SDM and WT rice seedlings were planted in pots containing soil and placed in an artificial climate room (30° C. 16 h light/28° C. 8 h dark) for growth. 3 weeks later, when the rice seedlings reached a height of 15-20 cm, 200 μM mesotrione (prepared with 0.1% Tween-20) and 0.1% Tween-20 were sprayed to OE SDM and WT rice seedlings, respectively. Then, the phenotype should be observed every week. The oxidative stress index was measured 1 week after the treatment, the chlorophyll content of the leaves was measured 2 weeks after the treatment, and the experimental result was photographed 3 weeks after the treatment.
# [4] = system: WT and T0 OE SDM rice seedlings; assay: Total chlorophyll content in rice leaves; assay type: in vivo; conditions: 200 μM
# Procedure: Referring to the method of Lichtenthaler HK (1987), chlorophyll was extracted from the leaves of wild-type and T0 generation OE SDM rice seedlings which were sprayed with 200 μM mesotrione (prepared with 0.1% Tween-20) and sprayed with control 0.1% Tween-20 after 2 weeks and its content was determined. All experiments were repeated biologically 3 times, and the average value was taken.
# [5] = system: WT and T0 OE SDM rice leaves; assay: Oxidative stress indexes of rice leaves (NBT, DAB staining); assay type: in vivo; conditions: 1 week; for O2 and H2O2 accumulation in leaves (NBT, DAB): 200 μM
# Procedure: Herbicides cause the production of reactive oxygen species (ROS), leading to cell death. In order to determine the oxidation state of rice, leaves of wild-type and TO-generation OE SDM rice which were sprayed with 200 μM mesotrione (prepared with 0.1% Tween-20) and sprayed with control 0.1% Tween-20 were collected, and stained with nitroblue tetrazolium (NBT) and 3,3-diaminobenzidine (DAB), respectively, to analyze the accumulation of superoxide (O2^−) and hydrogen peroxide (H2O2).
# At the end of the herbicide treatment, leaves of 4 week-old rice (normal growth for 3 weeks and herbicide spray treatment for 1 week) were placed in a 3.5 mg mL^−1 nitroblue tetrazolium (N6876, Sigma-Aldrich) staining solution (potassium phosphate buffer containing 10 mM NaN3), soaked in vacuum, and shaked on a shaker overnight. The NBT-stained plants were destained with a mixed solution of acetic acid:glycerol:ethanol=1:1:3 (v/v/v) at 100° C. for 5 min, and then reserved in a mixed solution of glycerol:ethanol=1:4 (v/v).
# Rice seedling leaves were soaked in DAB staining solution for 2 min under vacuum, and then placed in a shaker for 7-8 h. The DAB-stained plants were destained with a mixed solution of acetic acid:glycerol:ethanol=1:1:3 (v/v/v) at 100° C. for 5 min, and then reserved in a mixed solution of glycerol:ethanol=1:4 (v/v).
# [6] = system: GmHPPD, HST, HPT, MPQMT and TC gene expression in soybean seedlings; assay: qPCR of HPPD and tocopherol biosynthesis genes in soybean after herbicide treatment; assay type: in vivo; conditions: 20 μM, 12 h
# Procedure: 4 week-old T1 generation seedlings of WT, OE GmHPPD and OE PaHPPD-SDM were used as materials to set up a treatment group and a control group, respectively, wherein the treatment group was continuously cultured in ½ MS liquid medium containing 20 μM mesotrione for 12 h. The total RNA of related materials was extracted using Super Fast Plant RNA Extraction Kit (Beijing Huayueyang Biological Technology Co., Ltd., China). The concentration of RNA samples was measured using NanoDrop ND1000 (Thermo Scientific, USA). RNA samples with an absorbance ratio (at wavelengths of 260/280 nm and 260/230 nm) of approximately 2.0 were selected. The total RNA (1,000 ng) was then used for synthesis of cDNA for reverse transcription using a cDNA synthesis kit (One-step Removal of Transcript gDNA and cDNA Synthesis Super Kit, TransGen).
# As for quantitative reverse transcription PCR analysis, 3.0 μL cDNA was used as a template in a 20 μL reaction system, and gene-specific primers such as qGmHPPD F and qGmHPPD R were used for GmHPPD gene, qGmHST F and qGmHST R were used for […] gene (alkapton lycopene transferase gene), qGmHPT F and qGmHPT R were used for GmHPT or VTE2 genes, GmMPQMT F and MPQMT R were used for GmMPQMT methyl transferase genes (also known as VTE3), GmTC F and GmTC R were used for GmTC genes (also known as VTE1, tocopherol cyclase gene). These VTE (1, 2 and 3) genes were selected because they encode the key enzymes involved in tocopherol biosynthesis. Three technical repetitions were performed on the Bio-Rad CFX96 real-time system. REST software was used for statistical analysis.
smiles,measurement,setting,value
CS(=O)(=O)c1ccc(C(=O)C2C(=O)CCCC2=O)c([N+](=O)[O-])c1 [mesotrione],cotyledon phenotype,"[1]; OE At and OE Pa, 250 nM, 1 week",albino
same,concentration at which seedlings grew well (maximum tolerance concentration of seedlings),"[1]; OE M3, 7-day seedlings, 1 week on 1/2 MS medium",250 nM
same,concentration at which cotyledons were albino,"[1]; WT, 7-day seedlings, 1 week on 1/2 MS medium",100 nM
same,total chlorophyll and carotenoid content of leaves with the increase of herbicide concentration,"[2]; WT, OE At, OE Pa and OE M3, 0-1000 nM in 1/2 MS medium",decreased
same,"total chlorophyll and carotenoid content of OE M3 compared with WT, OE At and OE Pa",[2]; same herbicide concentration,significantly higher
same,phenotype of leaves/plants,[3]; OE SDM rice line (T0),grew well; also recorded: very small visible signs of damage
same,phenotype of leaves/plants,[3]; WT rice,albino and the growth was inhibited until death; also recorded: withered and died
same,chlorophyll content of leaves after treatment,[4]; OE PaHPPD-SDM rice,did not decrease significantly
same,total chlorophyll content in leaves compared with treated OE SDM rice,"[4]; WT rice, 2 weeks",greatly reduced
same,"contents of superoxide, H2O2 and MDA in WT rice leaves compared with OE SDM rice leaves",[5]; 200 μM spray,significantly higher
same,"O2 and H2O2 accumulation in leaves (NBT, DAB)",[5]; OE SDM rice,little
same,"O2 and H2O2 accumulation in leaves (NBT, DAB)",[5]; WT rice,large number
same,expression levels of GmHPPD and MPQMT genes compared with control,[6]; OE GmHPPD T1 line,decreased
same,"expression levels of HST, HPT and TC genes compared with control",[6]; OE GmHPPD T1 line,increased
same,expression levels of GmHPPD and HPT genes compared with control,[6]; OE PaHPPD-SDM T1 line,up-regulated
same,"expression levels of HST, MPQMT and TC genes compared with control",[6]; OE PaHPPD-SDM T1 line,almost unchanged
same,"expression of GmHPPD, HST, HPT, MPQMT and TC genes compared with control",[6]; wild-type William 82,significantly reduced
